We go through eleven compounds from ChEMBL document CHEMBL3044890, “Peroxidizing Phytotoxicities of 1, 2-Alkylene-1, 2, 4-triazolidines and 3, 4-Alkylene-1, 3, 4-thiadiazolidines” (J Pestic Sci, 1996).

The assay has as its target T1, Protoporphyrinogen IX oxidase (Zea mays, UniProt Q9FYV8).
T1 sequence (Q9FYV8 whole entry): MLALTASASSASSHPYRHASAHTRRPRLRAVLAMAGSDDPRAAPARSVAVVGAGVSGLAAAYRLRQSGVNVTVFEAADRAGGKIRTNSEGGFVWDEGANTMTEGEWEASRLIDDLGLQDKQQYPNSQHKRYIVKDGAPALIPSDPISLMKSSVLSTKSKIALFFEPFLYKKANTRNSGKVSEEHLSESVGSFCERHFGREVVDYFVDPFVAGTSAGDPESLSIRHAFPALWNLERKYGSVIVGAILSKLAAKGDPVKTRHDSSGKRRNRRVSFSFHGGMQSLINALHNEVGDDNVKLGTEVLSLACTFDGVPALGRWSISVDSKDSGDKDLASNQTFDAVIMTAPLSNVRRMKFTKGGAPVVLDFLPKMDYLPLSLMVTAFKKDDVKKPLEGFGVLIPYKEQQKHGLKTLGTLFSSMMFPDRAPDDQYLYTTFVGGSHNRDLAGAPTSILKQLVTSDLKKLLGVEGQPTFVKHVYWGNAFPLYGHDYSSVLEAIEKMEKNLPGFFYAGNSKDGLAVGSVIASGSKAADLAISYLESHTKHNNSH
Briefly: Inhibition of Zea mays cv. Anjou (maize) plastid Protoporphyrinogen IX oxidase assessed as inhibition of protoporphyrin IX by fluorescence spectrophotometry. The settings on record: read-out: pI50 (converted).
For the compound `O=c1n(-c2ccc(Br)cc2)c(=O)n2n1CCCC2`, the IC50 was 339 nM.

Consider `O=c1n(-c2ccc(Br)cc2)c(=S)n2n1CCCCC2`, for which the IC50 is 129 nM.

In the case of `S=c1s/c(=N\c2ccc(Br)cc2)n2n1CCC2`, the IC50 is 324 nM.

With `S=c1n(-c2ccc(Br)cc2)c(=S)n2n1CCCCC2`, the IC50 was 70.8 nM.

Turning to `O=c1n(-c2ccc(Br)cc2)c(=O)n2n1CCC2`, the IC50 is 617 nM.

Consider `O=c1s/c(=N\c2ccc(Br)cc2)n2n1CCC2`, for which the IC50 is 3630 nM.

As for `S=c1n(-c2ccc(Br)cc2)c(=S)n2n1CCC2`, the IC50 was 28.8 nM.

Turning to `O=c1n(-c2ccc(Br)cc2)c(=S)n2n1CCCC2`, the IC50 is 12.9 nM.

As to `O=c1n(-c2ccc(Br)cc2)c(=S)n2n1CCC2`, the IC50 is 53.7 nM.

As to `O=c1n(-c2ccc(Br)cc2)c(=O)n2n1CCCCC2`, the IC50 is 2510 nM.

Consider `O=C1C2=C(CCCC2)C(=O)N1c1ccc(Br)cc1`, for which the IC50 was 50.1 nM.
